According to publication PMC3734177, “Design, Synthesis, Evaluation and Thermodynamics of 1-Substituted Pyridylimidazo[1,5-a]Pyridine Derivatives as Cysteine Protease Inhibitors” (PLoS ONE, 2013):
In brackets after ≈: the same amount, converted by molar mass. Several values for one entry are separate records, joined by “and”; a condition that tells them apart may be missing. Equal entries are not always repeated. Where two headings read alike, the source gives them in different places.

Key:
[1] = system: Bacillus spp. (ATCC-14593); assay: MIC, micro dilution method; format: cell-based; conditions: ATCC14593; Bacillus sp.
papain [2] = biological target: T1, papain (Carica papaya, UniProt P00784); assay: Cysteine protease inhibitory activity, papain with Bz-DL-Arg-pNA substrate; format: biochemical; conditions: for Type of inhibition: Lineweaver–Burk plot; for IC50: papain
T1 construct: To solutions of active papain (final concentration: 0.05 mM); purchased Sigma Chemical Co., St. Louis, MO, USA
T1 sequence (P00784 134-345): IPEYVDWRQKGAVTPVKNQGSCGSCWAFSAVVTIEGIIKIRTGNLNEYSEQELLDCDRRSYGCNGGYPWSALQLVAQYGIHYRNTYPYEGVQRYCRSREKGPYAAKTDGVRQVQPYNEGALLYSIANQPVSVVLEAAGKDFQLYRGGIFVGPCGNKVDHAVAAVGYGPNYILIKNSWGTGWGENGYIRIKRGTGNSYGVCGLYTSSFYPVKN
Method: The capacity of the 1-pyridylimidazo[1,5-a]pyridine derivatives to inhibit cysteine proteases was tested using papain as the model enzyme. The proteolytic activity of the reaction mixtures was determined using Bz-DL-Arg-pNA as the chromogenic substrate. To solutions of active papain (final concentration: 0.05 mM) were added concentrated solutions of the different derivatives to final concentrations of 0.2 mM. […] The same procedure was used at 32°C and 42°C for thermodynamics studies. The kinetic parameters for the substrate hydrolysis were determined by measuring the initial rate of enzymatic activity. The inhibition constant Ki was determined by Dixon method and also by the Lineweaver–Burk equation. The Km value was calculated from the double-reciprocal equation by fitting the data into the computer software Origin 6.1. The Lineweaver–Burk plot was used to determine the types of inhibition. For the kinetic analysis and rate constant determinations, the assays were carried out in triplicate, and the average value was considered throughout this work.

[3] = system: Group D Streptococci (ATCC-12959); assay: MIC, micro dilution method; format: cell-based
Method: (§1) The disk diffusion method was used for the preliminary antibacterial evaluation of 1-pyridylimidazo[1,5-a]pyridine derivatives. The MIC50 of these derivatives, showing inhibition in the preliminary tests, were further determined by the microtitre plate technique using micro dilution method. In brief, the bacterial strains (S. aureus, P. vulgaris, Group D Streptococci, Bacillus sp., E. coli, P. aeruginosa and S. morganii)) were grown and diluted to 2×10^5 colony-forming units (CFU)/ml in sodium phosphate buffer (SPB) containing 0.03% Luria–Bertani (LB) broth. The synthesized derivatives were dissolved in DMSO and their serial dilution was performed in 50 µL of LB medium in 96-well microtitre plate to achieve the required concentrations (0.1–10 µg/ml) with bacterial inoculums (5×10^4 CFU per well). DMSO was taken as negative control and Ceftriaxone and clotrimazole were taken as positive control. After incubation at 37°C overnight, the MICs were taken as the lowest inhibitor concentration at which the bacterial growth was inhibited. The average of three values was calculated and that was the MIC for the test material and bacterial strain.
(§2) For the agar plate count method, 25 µL aliquots of bacteria at 1×10^5 CFU/ml in SPB containing 0.03% LB broth were incubated with 25 µL of diluted compounds for 2 h at 37°C. The mixtures of bacteria and compounds were serially diluted 10-fold with SPB and plated on LB plates that were incubated at 37°C overnight. Bacterial colonies were enumerated the following day.

[4] = system: Serratia morganii (ATCC- 31665); assay: MIC, micro dilution method; format: cell-based; conditions: ATCC31665
Method: as §1, §2

papain [5] = biological target: T1, papain; assay: Thermodynamics analysis of papain inhibition (Van't Hoff); format: biochemical; conditions: Value at 37°C; for ΔH (enthalpy change): Van't Hoff plot
Method: Free energy changes of inhibition of papain against 1- substituted pyridylimidazo[1,5-a] pyridine derivatives (ΔG) were determined by the equation, [drawing 1] (1)
Temperature dependence of the inhibition constants was used to determine the thermodynamic parameters. Changes in enthalpy (ΔH) were determined from the Van’t Hoff plots by using the equation, [drawing 2] (2)
Where ΔH is enthalpy change, R is gas constant, ΔS is entropy change and T is the absolute temperature. The entropy change was obtained from the equation, [drawing 3] (3)

[6] = system: Proteus vulgaris (ATCC-29905); assay: MIC, micro dilution method; format: cell-based; conditions: ATCC29905, P. vulgaris
Method: as §1, with “strain. […]” for “strain.”

[7] = system: Pseudomonas aeruginosa (ATCC-27853); assay: MIC, micro dilution method; format: cell-based; conditions: ATCC27853
Method: as §1, with “strain. […]” for “strain.”

[8] = system: Bacillus spp. (ATCC-14593); assay: MIC, micro dilution method; format: cell-based; conditions: ATCC14593; Bacillus sp.; remark: listed apart in the source
Method: as §1, with “strain. […]” for “strain.”

[9] = system: Escherichia coli (ATCC-25922); assay: MIC, micro dilution method; format: cell-based; conditions: ATCC25922, E. coli
Method: as §1, with “strain. […]” for “strain.”

[10] = system: Staphylococcus aureus (ATCC-25923); assay: MIC, micro dilution method; format: cell-based; conditions: ATCC25923, S. aureus
Method: as §1, with “strain. […]” for “strain.”

[11] = system: Group D Streptococci (ATCC-12959); assay: MBC, sub cultivation from MIC plate; format: cell-based
Method: (§3) After having determined the MICs, bacterial strains from the wells of the microtitre plate with no visible bacterial growth were removed for serial sub cultivation of 2 µl into another new microtitre plate containing 100 µl of broth per well and further incubated for 24 h. The lowest concentration with no visible growth was defined as MBC [28], indicating 99.5% killing of the original inoculum. The absorbance of each well was measured at a wavelength of 620 nm by Microplate Manager 4.0 (Bio-Rad laboratories) and compared with a blank. Solvent (DMSO) was used as a negative control. Three replicates were done for each compound and experiment was repeated two times.

[12] = system: Proteus vulgaris (ATCC-29905); assay: MBC, sub cultivation from MIC plate; format: cell-based; conditions: ATCC29905, P. vulgaris
Method: as §3

[13] = system: Pseudomonas aeruginosa (ATCC-27853); assay: MBC, sub cultivation from MIC plate; format: cell-based
Method: as §3

[14] = system: Bacillus spp. (ATCC-14593); assay: MBC, sub cultivation from MIC plate; format: cell-based; conditions: ATCC14593, Bacillus sp.
Method: as §3

[15] = system: Escherichia coli (ATCC-25922); assay: MBC, sub cultivation from MIC plate; format: cell-based; conditions: ATCC25922, E. coli
Method: as §3

[16] = system: Staphylococcus aureus (ATCC-25923); assay: MBC, sub cultivation from MIC plate; format: cell-based; conditions: ATCC25923, S. aureus
Method: as §3

[17] = system: Serratia morganii (ATCC- 31665); assay: MBC, sub cultivation from MIC plate; format: cell-based
Method: as §3

Row | SMILES | MIC90 [1] [µg/mL] | Ki (papain [2]; 32°C) [µM] | Ki (papain [2]; 37°C) [µM] | Ki (papain [2]; 42°C) [µM] | Type of inhibition (papain [2]) | IC50 (papain [2]) [µM] | ΔG (free energy of binding) (papain [5]) | ΔS (entropy change) (papain [5]) | MIC50 [6] [µg/mL] | MIC90 [6] [µg/mL] | MIC50 [7] [µg/mL] | MIC90 [7] [µg/mL] | MIC50 [8] [µg/mL] | MIC50 [9] [µg/mL] | MIC90 [9] [µg/mL] | MIC50 [10] [µg/mL] | MIC90 [10] [µg/mL] | MBC ([12]; read-out: MBC50) [µg/mL] | MBC ([12]; read-out: MBC90) [µg/mL] | MBC ([13]; ATCC27853, read-out: MBC50) [µg/mL] | further results
1 | Oc1ccccc1-c1nc(-c2ccccn2)c2ccccn12 [Compound 3a, 1-(2-pyridyl)-3-(2-hydroxyphenyl) imidazo[1,5-a]pyridine] | 1.2 (≈ 4.18 µM) | 14.3 | 13.7 | 11.1 | Non- Competitive | 13.4 | −6.86 Kcalmol^−1 and −6.86(±0.30) Kcalmol^−1 | 72.92 (±2.33) Jmol-K^−1 | 0.8 (≈ 2.78 µM) | 1.6 (≈ 5.57 µM) | 0.6 (≈ 2.09 µM) | 1.09 (≈ 3.79 µM) | 0.6 (≈ 2.09 µM) | 0.6 (≈ 2.09 µM) | 0.99 (≈ 3.45 µM) | 0.9 (≈ 3.13 µM) | 1.7 (≈ 5.92 µM) | 1.6 (≈ 5.57 µM) | 3.1 (≈ 10.8 µM) | 1.1 (≈ 3.83 µM) | MIC50 [3]: 0.7 µg/mL (≈ 2.44 µM); MIC90 [3]: 1.3 µg/mL (≈ 4.52 µM); MIC50 [4]: 0.8 µg/mL (≈ 2.78 µM); MIC90 [4]: 1.5 µg/mL (≈ 5.22 µM); ΔH (enthalpy change) (papain [5]): −6.2(±0.88) KJmol^−1; MBC ([11]; read-out: MBC50): 1.3 µg/mL (≈ 4.52 µM); MBC ([11]; read-out: MBC90): 2.5 µg/mL (≈ 8.7 µM); MBC ([13]; ATCC27853, read-out: MBC90): 1.9 µg/mL (≈ 6.61 µM); MBC ([14]; read-out: MBC50): 1.2 µg/mL (≈ 4.18 µM); MBC ([14]; read-out: MBC90): 2.3 µg/mL (≈ 8 µM); MBC ([15]; read-out: MBC50): 1.3 µg/mL (≈ 4.52 µM); MBC ([15]; read-out: MBC90): 2.1 µg/mL (≈ 7.31 µM); MBC ([16]; read-out: MBC50): 1.8 µg/mL (≈ 6.26 µM); MBC ([16]; read-out: MBC90): 3.5 µg/mL (≈ 12.2 µM); MBC ([17]; ATCC31665, read-out: MBC50): 1.6 µg/mL (≈ 5.57 µM); MBC ([17]; ATCC31665, read-out: MBC90): 3.1 µg/mL (≈ 10.8 µM)
2 | COc1ccc(-c2nc(-c3ccccn3)c3ccccn23)cc1 [Compound 3b, 1-(2-pyridyl)-3-(4-methoxyphenyl) imidazo[1,5-a]pyridine] | 1.7 (≈ 5.64 µM) | 26.2 | 23.2 | 21.1 | Competitive | 21.2 | −6.55 Kcalmol^−1 and −6.55(±0.33) Kcalmol^−1 | 71.4 (±2.46) Jmol-K^−1 | 0.8 (≈ 2.65 µM) | 1.5 (≈ 4.98 µM) | 1 (≈ 3.32 µM) | 1.8 (≈ 5.97 µM) | 0.9 (≈ 2.99 µM) | 1 (≈ 3.32 µM) | 1.8 (≈ 5.97 µM) | 1 (≈ 3.32 µM) | 1.9 (≈ 6.3 µM) | 1.6 (≈ 5.31 µM) | 3.2 (≈ 10.6 µM) | 2.1 (≈ 6.97 µM) | ΔH (enthalpy change) (papain [5]): −5.3(±0.80) KJmol^−1; MBC ([13]; ATCC27853, read-out: MBC90): 4 µg/mL (≈ 13.3 µM); MBC ([14]; read-out: MBC50): 1.7 µg/mL (≈ 5.64 µM); MBC ([14]; read-out: MBC90): 3.2 µg/mL (≈ 10.6 µM); MBC ([15]; read-out: MBC50): 1.9 µg/mL (≈ 6.3 µM); MBC ([15]; read-out: MBC90): 2.9 µg/mL (≈ 9.62 µM); MBC ([16]; read-out: MBC50): 2.3 µg/mL (≈ 7.63 µM); MBC ([16]; read-out: MBC90): 4.5 µg/mL (≈ 14.9 µM)
3 | Clc1ccccc1-c1nc(-c2ccccn2)c2ccccn12 [Compound 3c, 1-(2-pyridyl)-3-(2-chlorophenyl) imidazo[1,5-a]pyridine] | 1.7 (≈ 5.56 µM) | 94.1 | 90 | 85.6 | Non -Competitive | 94.5 | −5.71 Kcalmol^−1 and −5.71(±0.27) Kcalmol^−1 | 69.88 (±2.65) Jmol-K^−1 | 1 (≈ 3.27 µM) | 1.9 (≈ 6.21 µM) | 1.2 (≈ 3.92 µM) | 2.2 (≈ 7.19 µM) | 0.9 (≈ 2.94 µM) | 0.6 (≈ 1.96 µM) | 1.1 (≈ 3.6 µM) | 1.2 (≈ 3.92 µM) | 2.4 (≈ 7.85 µM) | 2.2 (≈ 7.19 µM) | 4.3 (≈ 14.1 µM) | 2.4 (≈ 7.85 µM) | MIC50 [3]: 0.9 µg/mL (≈ 2.94 µM); MIC90 [3]: 1.7 µg/mL (≈ 5.56 µM); MIC50 [4]: 1 µg/mL (≈ 3.27 µM); MIC90 [4]: 1.9 µg/mL (≈ 6.21 µM); MBC ([11]; read-out: MBC50): 1.8 µg/mL (≈ 5.89 µM); MBC ([11]; read-out: MBC90): 3.4 µg/mL (≈ 11.1 µM); MBC ([13]; ATCC27853, read-out: MBC90): 4 µg/mL (≈ 13.1 µM); MBC ([14]; read-out: MBC50): 1.9 µg/mL (≈ 6.21 µM); MBC ([14]; read-out: MBC90): 3.8 µg/mL (≈ 12.4 µM); MBC ([15]; read-out: MBC50): 1.2 µg/mL (≈ 3.92 µM); MBC ([15]; read-out: MBC90): 2.3 µg/mL (≈ 7.52 µM); MBC ([16]; read-out: MBC50): 2.4 µg/mL (≈ 7.85 µM); MBC ([16]; read-out: MBC90): 4.7 µg/mL (≈ 15.4 µM); MBC ([17]; ATCC31665, read-out: MBC50): 2.1 µg/mL (≈ 6.87 µM); MBC ([17]; ATCC31665, read-out: MBC90): 4.1 µg/mL (≈ 13.4 µM)
